Several values for one entry are separate records, joined by “and”; a condition that tells them apart may be missing. Equal values may be shown once. Where a name gives a salt, the structure may show the parent alone. Read-outs that look alike come from different tables or passages of the source.
Columns and labels:
Experiment in all cases: qHTS cell viability (CellTiter-Glo, 72 h; primary and follow-up small molecule screen)
Format in all cases: cell-based, human
UISO cells (VN-MCC) = test system: UISO cells (VN-MCC)
MKL-1 cells (VP-MCC) = test system: MKL-1 cells (VP-MCC)
WAGA cells (VP-MCC) = test system: WAGA cells (VP-MCC)
MCC26 cells (VN-MCC) = test system: MCC26 cells (VN-MCC)
MCC13 cells (VN-MCC) = test system: MCC13 cells (VN-MCC)
MKL-2 cells (VP-MCC) = test system: MKL-2 cells (VP-MCC)
[1] = follow-up screen, UISO, replicate 1
[2] = follow-up screen, UISO, replicate 2
[3] = follow-up screen, UISO, replicate 3
[4] = follow-up screen, MKL-1, replicate 1
[5] = follow-up screen, MKL-1, replicate 2
[6] = follow-up screen, MKL-1, replicate 3
[7] = follow-up screen, WAGA, replicate 1
[8] = follow-up screen, WAGA, replicate 2
[9] = follow-up screen, WAGA, replicate 3
[10] = follow-up screen, MCC26, replicate 1
[11] = follow-up screen, MCC26, replicate 2
[12] = follow-up screen, MCC26, replicate 3
[13] = follow-up screen, MCC13, replicate 1
[14] = follow-up screen, MCC13, replicate 2
[15] = follow-up screen, MCC13, replicate 3
[16] = follow-up screen, MKL-2, replicate 1
[17] = follow-up screen, MKL-2, replicate 2
[18] = follow-up screen, MKL-2, replicate 3

Row | SMILES | Area under the dose-response curve (AUC) UISO Replicate 1 (UISO cells (VN-MCC)) | Area under the dose-response curve (AUC) UISO Replicate 2 (UISO cells (VN-MCC)) | Area under the dose-response curve (AUC) UISO Replicate 3 (UISO cells (VN-MCC)) | Area under the dose-response curve (AUC) MKL-1 Replicate 1 (MKL-1 cells (VP-MCC)) | Area under the dose-response curve (AUC) MKL-1 Replicate 2 (MKL-1 cells (VP-MCC)) | Area under the dose-response curve (AUC) MKL-1 Replicate 3 (MKL-1 cells (VP-MCC)) | Area under the dose-response curve (AUC) WAGA Replicate 1 (WAGA cells (VP-MCC)) | Area under the dose-response curve (AUC) WAGA Replicate 2 (WAGA cells (VP-MCC)) | Area under the dose-response curve (AUC) WAGA Replicate 3 (WAGA cells (VP-MCC)) | Area under the dose-response curve (AUC) MCC26 Replicate 1 (MCC26 cells (VN-MCC)) | Area under the dose-response curve (AUC) MCC26 Replicate 2 (MCC26 cells (VN-MCC)) | Area under the dose-response curve (AUC) MCC26 Replicate 3 (MCC26 cells (VN-MCC)) | Area under the dose-response curve (AUC) MCC13 Replicate 1 (MCC13 cells (VN-MCC)) | Area under the dose-response curve (AUC) MCC13 Replicate 2 (MCC13 cells (VN-MCC)) | Area under the dose-response curve (AUC) MCC13 Replicate 3 (MCC13 cells (VN-MCC)) | Area under the dose-response curve (AUC) MKL-2 Replicate 1 (MKL-2 cells (VP-MCC)) | Area under the dose-response curve (AUC) MKL-2 Replicate 2 (MKL-2 cells (VP-MCC)) | Area under the dose-response curve (AUC) MKL-2 Replicate 3 (MKL-2 cells (VP-MCC)) | further results
1 | CN(C)c1ccc(C(=C2C=CC(=[N+](C)C)C=C2)c2ccc(N(C)C)cc2)cc1.[Cl-] [Methylrosaniline chloride] | 320.8 | 340.7 | 296.1 | 316.1 | 287.7 | 301.6 | 370.0 | 348.5 | 356.4 | 379.4 | 341.7 | 374.7 | 337.3 | 353.3 | 322.2 | 279.9 | 290.8 | 309.2 | 
2 | O=C1c2c(O)ccc(O)c2C(=O)c2c(NCCNCCO)ccc(NCCNCCO)c21 [Mitoxantrone dihydrochloride] | 188.5 | 205.7 | 190.2 | 180.6 | 178.5 | 172.4 | 153.5 | 170.4 | 183.6 | 322.6 | 335.6 | 279.8 | 292.1 | 295.3 | 315.4 | 203.7 | 186.2 | 247.3 | 
3 | COc1ccc(OC)c(-c2nnc3ccc(-c4ccc(OC)c(O[C@@H]5CCOC5)c4)nn23)c1 [NCGC00168459-01] |  |  |  |  |  |  |  |  |  |  |  |  |  |  |  |  |  |  | Area under the dose-response curve (AUC) UISO Replicate 1 (UISO cells (VN-MCC); [1]): 435.8; Area under the dose-response curve (AUC) UISO Replicate 2 (UISO cells (VN-MCC); [2]): 424.6; Area under the dose-response curve (AUC) UISO Replicate 3 (UISO cells (VN-MCC); [3]): 430.2; Area under the dose-response curve (AUC) MKL-1 Replicate 1 (MKL-1 cells (VP-MCC); [4]): 460.8; Area under the dose-response curve (AUC) MKL-1 Replicate 2 (MKL-1 cells (VP-MCC); [5]): 464.3; Area under the dose-response curve (AUC) MKL-1 Replicate 3 (MKL-1 cells (VP-MCC); [6]): 463.4; Area under the dose-response curve (AUC) WAGA Replicate 1 (WAGA cells (VP-MCC); [7]): 480.8; Area under the dose-response curve (AUC) WAGA Replicate 2 (WAGA cells (VP-MCC); [8]): 429.3; Area under the dose-response curve (AUC) WAGA Replicate 3 (WAGA cells (VP-MCC); [9]): 424.9; Area under the dose-response curve (AUC) MCC26 Replicate 1 (MCC26 cells (VN-MCC); [10]): 450.8; Area under the dose-response curve (AUC) MCC26 Replicate 2 (MCC26 cells (VN-MCC); [11]): 439.4; Area under the dose-response curve (AUC) MCC26 Replicate 3 (MCC26 cells (VN-MCC); [12]): 478.6; Area under the dose-response curve (AUC) MCC13 Replicate 1 (MCC13 cells (VN-MCC); [13]): 471.2; Area under the dose-response curve (AUC) MCC13 Replicate 2 (MCC13 cells (VN-MCC); [14]): 476.6; Area under the dose-response curve (AUC) MCC13 Replicate 3 (MCC13 cells (VN-MCC); [15]): 471.3; Area under the dose-response curve (AUC) MKL-2 Replicate 1 (MKL-2 cells (VP-MCC); [16]): 463.7; Area under the dose-response curve (AUC) MKL-2 Replicate 2 (MKL-2 cells (VP-MCC); [17]): 433.6; Area under the dose-response curve (AUC) MKL-2 Replicate 3 (MKL-2 cells (VP-MCC); [18]): 459.9
4 | CO[C@@H]1C[C@@H](C[C@H]2CC[C@H](C)[C@H]([C@@H](C)C(=O)[O-])O2)O[C@]2(O[C@](C)([C@H]3CC[C@@](C)([C@@H]4O[C@@H]([C@H]5O[C@@](O)(CO)[C@H](C)C[C@@H]5C)C[C@@H]4C)O3)C[C@H]2C)[C@@H]1C.[Na+] [Nigericin sodium salt] | 277.0 | 262.8 | 250.0 | 303.1 | 277.9 | 285.1 | 344.8 | 317.4 | 302.7 | 423.1 | 378.2 | 418.9 | 420.5 | 422.2 | 367.3 | 228.1 | 251.1 | 280.4 | 
5 | CCCCCCCCC(=O)NCc1ccc(O)c(OC)c1 [Nonivamide] | 479.2 | 501.4 | 453.6 | 491.5 | 481.8 | 491.3 | 544.9 | 499.1 | 488.2 | 453.4 | 445.4 | 466.4 | 513.1 | 478.1 | 523.7 | 520.2 | 501.6 | 494.8 | 
6 | Fc1ccc2[nH]ccc2c1-c1nc(N2CCOCC2)c2sc(CN3CCN(CC4CC4)CC3)cc2n1 [PI-3065] |  |  |  |  |  |  |  |  |  |  |  |  |  |  |  |  |  |  | Area under the dose-response curve (AUC) (UISO cells (VN-MCC)): 477.0 and 474.8 and 437.8; Area under the dose-response curve (AUC) (MKL-1 cells (VP-MCC)): 492.3 and 479.8 and 465.2; Area under the dose-response curve (AUC) (WAGA cells (VP-MCC)): 514.3 and 478.8 and 484.1; Area under the dose-response curve (AUC) (MCC26 cells (VN-MCC)): 439.2 and 434.6 and 464.1; Area under the dose-response curve (AUC) (MCC13 cells (VN-MCC)): 491.4 and 471.7 and 470.9; Area under the dose-response curve (AUC) (MKL-2 cells (VP-MCC)): 468.3 and 439.3 and 471.2
7 | C[C@]12CCC(=NOCCN)C[C@@H]1C(=O)C[C@@H]1[C@@H]2CC[C@]2(C)C(=O)CC[C@@H]12 [PST-2744 (Istaroxime)] |  |  |  |  |  |  |  |  |  |  |  |  |  |  |  |  |  |  | Area under the dose-response curve (AUC) (UISO cells (VN-MCC)): 410.4 and 435.6 and 412.5; Area under the dose-response curve (AUC) (MKL-1 cells (VP-MCC)): 437.3 and 438.4 and 450.7; Area under the dose-response curve (AUC) (WAGA cells (VP-MCC)): 454.8 and 457.0 and 435.6; Area under the dose-response curve (AUC) (MCC26 cells (VN-MCC)): 394.3 and 428.5 and 414.9; Area under the dose-response curve (AUC) (MCC13 cells (VN-MCC)): 404.5 and 430.7 and 432.5; Area under the dose-response curve (AUC) (MKL-2 cells (VP-MCC)): 441.0 and 431.1 and 445.6
8 | Cc1cc(Nc2ncc3c(n2)N(C)C(=O)N(c2cc(NC(=O)c4cccc(C(F)(F)F)c4)ccc2C)C3)n(C)n1 [Pluripotin] |  |  |  |  |  |  |  |  |  |  |  |  |  |  |  |  |  |  | Area under the dose-response curve (AUC) UISO Replicate 1 (UISO cells (VN-MCC); [1]): 341.8; Area under the dose-response curve (AUC) UISO Replicate 2 (UISO cells (VN-MCC); [2]): 376.4; Area under the dose-response curve (AUC) UISO Replicate 3 (UISO cells (VN-MCC); [3]): 360.3; Area under the dose-response curve (AUC) MKL-1 Replicate 1 (MKL-1 cells (VP-MCC); [4]): 453.5; Area under the dose-response curve (AUC) MKL-1 Replicate 2 (MKL-1 cells (VP-MCC); [5]): 477.1; Area under the dose-response curve (AUC) MKL-1 Replicate 3 (MKL-1 cells (VP-MCC); [6]): 466.2; Area under the dose-response curve (AUC) WAGA Replicate 1 (WAGA cells (VP-MCC); [7]): 419.3; Area under the dose-response curve (AUC) WAGA Replicate 2 (WAGA cells (VP-MCC); [8]): 439.3; Area under the dose-response curve (AUC) WAGA Replicate 3 (WAGA cells (VP-MCC); [9]): 440.2; Area under the dose-response curve (AUC) MCC26 Replicate 1 (MCC26 cells (VN-MCC); [10]): 306.5; Area under the dose-response curve (AUC) MCC26 Replicate 2 (MCC26 cells (VN-MCC); [11]): 289.3; Area under the dose-response curve (AUC) MCC26 Replicate 3 (MCC26 cells (VN-MCC); [12]): 278.9; Area under the dose-response curve (AUC) MCC13 Replicate 1 (MCC13 cells (VN-MCC); [13]): 368.1; Area under the dose-response curve (AUC) MCC13 Replicate 2 (MCC13 cells (VN-MCC); [14]): 352.7; Area under the dose-response curve (AUC) MCC13 Replicate 3 (MCC13 cells (VN-MCC); [15]): 330.6; Area under the dose-response curve (AUC) MKL-2 Replicate 1 (MKL-2 cells (VP-MCC); [16]): 435.4; Area under the dose-response curve (AUC) MKL-2 Replicate 2 (MKL-2 cells (VP-MCC); [17]): 458.3; Area under the dose-response curve (AUC) MKL-2 Replicate 3 (MKL-2 cells (VP-MCC); [18]): 471.4

From publication PMC11822212, “High-throughput screening identifies Aurora kinase B as a critical therapeutic target for Merkel cell carcinoma” (Nature Communications, 2025)
